# Reference: patent US20150065717A1, “NIPECOTIC ACID DERIVATIVE AND USE THEREOF FOR MEDICAL PURPOSES” (Toray Industries, Inc., priority 2012, published 2015)
# Test system: rat monocrotaline-administered pulmonary hypertension model
# Assay: Rat monocrotaline-administered pulmonary hypertension model, administration from advanced stage
# Type: in vivo, rat (Wistar strain)
# Details: 10 mg/kg orally once per day for 18 or 19 days from Day 10 after monocrotaline; t-test p<0.05; FIG. 7
# Procedure: Rats (Wistar strain, male, 5 weeks old; JAPAN SLC, Inc.) with pulmonary hypertension induced by subcutaneous administration of an aqueous monocrotaline (Sigma Corporation) solution (60 mg/kg) to the back were provided as “group with induced pulmonary hypertension”. On the other hand, rats to which water for injection was similarly administered were provided as “normal group”.
# To rats in the group with induced pulmonary hypertension, Example Compound 1 (3 or 10 mg/kg) or a positive control compound tadalafil (10 mg/kg) was orally administered once per day. Administration of Example Compound 1 (3 or 10 mg/kg) was carried out for 18 or 19 days from Day 10 after the administration of monocrotaline. Administration of tadalafil (10 mg/kg) was carried out for 28 or 29 days from the day of administration of monocrotaline. […]
# On the last day of administration of the test compound, blood was collected from the abdominal vena cava of each rat under anesthesia, and the rat was then euthanized, followed by removal of the heart for measurement of the wet weights of the right ventricle, left ventricle and septum to determine the right ventricular weight ratio (right ventricular weight/(septum weight+left ventricular weight)). The 14,15-DHET concentration in the collected blood was measured by the ELISA method. […]
smiles,measurement,value
"CCC(=O)NC1(C(=O)N2CCC[C@@H](C(=O)NCc3ccc(C#N)cc3OC(F)(F)F)C2)CCC1 [Example Compound 1, (R)—N-(4-cyano-2-(trifluoromethoxy)benzyl)-1-(1-propionamidocyclobutanecarbonyl)piperidine-3-carboxamide]",right ventricular weight ratio vs pulmonary hypertension control group,statistically significantly lower
